# Results taken from patent US11826369B2, “Targeting the TLK1/NEK1 axis in prostate cancer” (Board of Supervisors of Louisiana State University and …, priority 2019, dated 2023).
# Several values for one entry are separate records, joined by “and”; a condition that tells them apart may be missing. Identical values can stand only once. Entries after “also recorded” stand apart in the source; their conditions may differ.
# Assays:
# [1] = system: LNCaP, C4-2B, 22RV1, DU14, PC3, TRAMP-C2; test: Cell proliferation assays of PCa cell line panel; format: cell-based; settings: androgen containing medium (FBS)
# Method: (§1) All experiments were conducted in triplicates. […] The cells were grown for 2-3 weeks and stained with crystal violet. All experiments were conducted in triplicates. […] The cell lines used were human “normal” RWPE-1, LNCaP, (LNCaP-derivative) C4-2B, 22RV1, DU14, PC3, and mouse TRAMP-C2. FIGS. 11C and 11D show cell proliferation of LNCaP and TRAMP-C2 were determined during a 3 days incubation with different concentration of J54 (MTS assay). All experiments were conducted in triplicates. […] Representative analysis of two independent experiments are shown.
# (§2) J54 in combination with anti-androgen (Bicalutamide) induces apoptosis in AS PCa cells. […] The inventors thus tested the same panel of cells in androgen containing medium (FBS) by proliferation assays. […] Note that VCaP cells were 60% inhibited by J54 alone, consistent with their elevated replication stress-driven DDR and checkpoint activation (FIG. 12E), which when suppressed with J54 could lead to apoptosis. Clonogenic assays are unable to distinguish the effects of a DNA damaging agent, which can result in either an impaired or delayed resumption of growth (cell division) or loss of viability due to increased killing of the initial population. The inventors thus measured in LNCaP and TRAMP-C2 cells the early change in cell number (MTT assay) over 72 h with J54 alone.
# [2] = General assessment of mice following injections; format: in vivo
# Source text: We then did a general assessment of mice following injections of J54. […] To get a better assessment of the possible behavioral effects of J54, the inventors used C. elegans that has a simple but complete nervous system and has been well characterized for its responses to anti-psychotic drugs, including actions at serotonin or dopamine receptors.
# [3] = Pharmacokinetics, plasma distribution after IP injection; format: in vivo, mice
# Source text: FIGS. 18A-18C show pharmacokinetics plasma distribution of J54.
# (§3) The inventors sought to establish if the addition of J54 could suppress the resurgence of tumor growth of LNCaP xenografts and their latter conversion to CRPC. Following formation of sizeable tumors (˜200 mm^3), castration or anti-androgens arrest the progression of LNCaP xenografts for some time (2-3 weeks), while subsequently the tumors start growing again at an accelerated rate which is refractory to ADT (AI). Therefore, the inventors injected LNCaP cells in matrigel in both flanks of NOD-SCID mice, and then randomly assigned them to four treatment groups (n=5 per group×2 independent experiments), as shown in FIGS. 13A-13C. […] The inventors should also point out that the inventors treated the mice with J54 only bi-weekly due to the favorable pharmacokinetics, where maximal plasma concentration of 100 ng/ml ([…]) were reached 2 h after IP injection, and was still present at −6 ng/ml (6 μM) after 24 h (FIG. 18A-18C).
# [4] = system: RWPE1 (normal prostate) cell line; test: Cell proliferation assay, normal prostate cells; format: cell-based, human
# Method: as §1, §2
# LNCaP xenografts = test: LNCaP xenograft model; format: in vivo, NOD/SCID mice; settings: IP bi-weekly
# Method: Treatment started 19 days after implantation when the tumors measure ˜200 mm^3. Two independent experiment with 5 mice per group were carried out. J54 and Bicalutamide was dissolved in DMSO and diluted in corn oil 1:10 and administered IP bi-weekly. Sectioning and processing of the tissues were carried out in the FWCC Histology Service, using automated processes and equipment to provide uniform and standardized results. Indirect labeling was with ABC Elite: RTU Vectastain Elite Reagent, Vector #PK-7100; DAB: ImmPact DAB, Vector #SK-4105. Light counterstaining was done with hematoxylin. […] Note the weak pNek1 stain in the tumor from mice treated with J54, in contrast to the increase seen with BIC.
# LNCaP Xenograft Model and Immunohistochemistry (IHC): All animals used in this study were approved by LSUHSC IACUC and following ARRIVE guidelines. Male NOD/SCID mice (5 per group) were purchased from Jackson labs. LNCaP cells were injected as described earlier. Mice were treated IP bi-weekly with J54 (5 mg/kg body weight—dose estimation derived from pharmacokinetics study) and/or Bicalutamide (100 mg/kg).
# as §3
# [5] = system: recombinant human dopamine receptors (D1 and D3); test: Competitive radioassay with 7-Hydroxy DPAT, R-(+)-[3H] tracer; format: binding; settings: 100 nM, compared to THD
# LNCaP, VCaP and TRAMP-C2 = test: Clonogenic assays of AS PCa cells; format: cell-based
# Method: as §1, §2
# VCaP cells = test: Clonogenic assay, VCaP; format: cell-based; settings: J54 alone
# Method: as §1, §2
# C. elegans = test: Behavioral assays in C. elegans; format: in vivo
# Method: FIGS. 19A-19C show behavioral assays in C. elegans. In FIG. 15A, for the pharyngeal pumping assay, wild-type animals (N2 strain) were transferred to plates with diluted DMSO (Control) or drug (J-54 or trifluoperazine) at 160 μM final concentration for 90 min before quantifying pharyngeal pumping see SI methods). The inventors counted visible movement of the grinder (pharyngeal contractions) for 30 sec to obtain the pumping rate (N=45). […] Inhibition of pharyngeal pumping by trifluoperazine (TFP), a typical PTH antipsychotic, is attributed to its known activity as a dopamine and calmodulin antagonist. In FIG. 15B. foraging, regulated by serotonin and dopamine, was studied in wild-type animals evaluated in the presence of DMSO (Control) or J54 at a high dose of 160 μM vs. TFP at 40 μM. The number of omega turns (head touches body) and reversals were then counted over the next 3 min to quantify search behavior for each group (N=13 per group). […] Dopamine produces immobility in C. elegans after 2-3 hr of exposure. Antipsychotic drugs, such as haloperidol, that potently block D2 dopamine receptors largely counteract the effects of dopamine, i.e., more animals continue to move on plates that include dopamine plus drug. Wild-type animals were incubated on 60 agar plates with bacteria and diluted DMSO (Control) or J54 or haloperidol at 160 μM final concentrations. After 1 hr on these plates, they were transferred to 60 mm agar plates with bacteria that also contained dopamine (final concentration 25 mM) plus diluted DMSO (Control) or else J-54 or haloperidol at final concentrations of 160 μM. After 3 hr on the dopamine plates, the inventors examined movement and counted animals as moving if they traversed half their body length in either the forward or backward direction during a 5-sec observation period. The inventors then calculated the percentage of animals moving and repeated this experiment three times to confirm the effects of drug.
# We then did a general assessment of mice following injections of J54. […]
# LNCaP and TRAMP-C2 cells = test: Early change in cell number (MTT assay) over 72 h; format: cell-based; settings: J54 alone
# Method: as §1, §2
compound,measurement,setting,value
"c1ccc2c(c1)Sc1ccccc1N2CCN1CCOCC1 [J54, 4-(2-(10H-phenothiazin-10-yl)ethyl) morpholine]",concentration of maximal efficacy,[1],around 18 μM
same,inhibition of proliferation,[1],weak dose-dependent inhibition
same,toxicity,[2]; incl. gross inspection of organs at necropsy,no toxicity
same,behavioral changes,"[2]; mouse, in vivo",no behavioral changes
same,body weight,"[2]; mouse, in vivo",no decrease in body weight
same,maximal plasma concentration,[3]; IP injection,100 ng/ml and 35 μM
same,time of maximal plasma concentration,[3]; after IP injection,2 h
same,concentration at 24 h,"[3]; mouse, plasma, IP injection",6 µM
same,sensitivity of normal cells,[4],insensitive; also recorded: non-toxic to normal cells
same,tumor weight,LNCaP xenografts; end of treatment,significant suppression
same,tumor growth,"LNCaP xenografts; J54 5 mg/kg, Bicalutamide 100 mg/kg",significant suppression
same,antagonism of dopamine receptors,[5],very weak antagonist
same,growth of colonies of LNCaP cells cultured with BIC,"LNCaP, VCaP and TRAMP-C2",suppresses the growth of androgen-dependent colonies
same,inhibition of colony formation,VCaP cells,60%
same,pharyngeal pumping rate,"C. elegans; 160 μM, 90 min",reduced the pumping rate but to a lesser extent than a much lower concentration of TFP
same,toxicity to worms,C. elegans; prolonged exposure,not toxic to worms even after prolonged exposure
same,behavioral effects attributable to DR2 activity,C. elegans; three studies,much weaker behavioral effects
same,change in cell number,LNCaP and TRAMP-C2 cells,actual loss in cell counts in relation to the dose
